The structures appear in SMILES notation.

This assay addresses T1, hENaC channel (Homo sapiens, UniProt P37088+P51168+P51170, A314G/A350T/D375G/F339S/S458R/Y369S).
T1 sequence (P37088 1-669): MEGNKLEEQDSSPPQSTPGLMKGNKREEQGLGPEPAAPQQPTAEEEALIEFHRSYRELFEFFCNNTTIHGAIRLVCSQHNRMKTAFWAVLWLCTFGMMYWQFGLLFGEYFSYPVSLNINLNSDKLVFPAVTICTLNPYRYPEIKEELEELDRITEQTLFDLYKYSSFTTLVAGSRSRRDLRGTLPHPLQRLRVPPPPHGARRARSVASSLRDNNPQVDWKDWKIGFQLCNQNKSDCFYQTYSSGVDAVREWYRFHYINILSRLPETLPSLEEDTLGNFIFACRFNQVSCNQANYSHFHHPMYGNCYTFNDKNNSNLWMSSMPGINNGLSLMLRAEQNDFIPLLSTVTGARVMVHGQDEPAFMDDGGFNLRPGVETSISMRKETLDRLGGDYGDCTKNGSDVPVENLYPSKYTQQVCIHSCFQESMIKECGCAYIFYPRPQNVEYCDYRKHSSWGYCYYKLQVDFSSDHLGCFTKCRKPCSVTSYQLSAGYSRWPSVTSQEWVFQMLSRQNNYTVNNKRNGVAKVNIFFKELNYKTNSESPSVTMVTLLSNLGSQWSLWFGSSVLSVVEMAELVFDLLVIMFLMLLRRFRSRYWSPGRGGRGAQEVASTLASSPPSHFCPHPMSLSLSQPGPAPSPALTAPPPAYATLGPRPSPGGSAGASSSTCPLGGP
T1 sequence (P51168 1-640 A314G): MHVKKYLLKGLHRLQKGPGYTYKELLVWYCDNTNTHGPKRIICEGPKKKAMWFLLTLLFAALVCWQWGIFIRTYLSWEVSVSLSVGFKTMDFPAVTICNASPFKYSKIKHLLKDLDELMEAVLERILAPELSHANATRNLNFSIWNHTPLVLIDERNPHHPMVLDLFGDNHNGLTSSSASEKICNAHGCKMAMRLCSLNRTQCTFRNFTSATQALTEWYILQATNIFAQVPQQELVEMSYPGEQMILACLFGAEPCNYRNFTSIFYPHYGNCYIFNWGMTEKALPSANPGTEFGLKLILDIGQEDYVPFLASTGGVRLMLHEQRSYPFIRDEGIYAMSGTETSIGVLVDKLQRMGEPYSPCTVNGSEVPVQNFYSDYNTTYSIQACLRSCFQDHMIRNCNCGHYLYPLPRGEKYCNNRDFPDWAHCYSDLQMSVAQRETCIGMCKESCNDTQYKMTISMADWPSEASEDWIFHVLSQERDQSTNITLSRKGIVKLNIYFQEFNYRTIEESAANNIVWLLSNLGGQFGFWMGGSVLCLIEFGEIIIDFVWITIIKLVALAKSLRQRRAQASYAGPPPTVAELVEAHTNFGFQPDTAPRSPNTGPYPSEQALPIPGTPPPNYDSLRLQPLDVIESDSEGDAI
T1 sequence (P51170 1-649 F339S/A350T/Y369S/D375G/S458R): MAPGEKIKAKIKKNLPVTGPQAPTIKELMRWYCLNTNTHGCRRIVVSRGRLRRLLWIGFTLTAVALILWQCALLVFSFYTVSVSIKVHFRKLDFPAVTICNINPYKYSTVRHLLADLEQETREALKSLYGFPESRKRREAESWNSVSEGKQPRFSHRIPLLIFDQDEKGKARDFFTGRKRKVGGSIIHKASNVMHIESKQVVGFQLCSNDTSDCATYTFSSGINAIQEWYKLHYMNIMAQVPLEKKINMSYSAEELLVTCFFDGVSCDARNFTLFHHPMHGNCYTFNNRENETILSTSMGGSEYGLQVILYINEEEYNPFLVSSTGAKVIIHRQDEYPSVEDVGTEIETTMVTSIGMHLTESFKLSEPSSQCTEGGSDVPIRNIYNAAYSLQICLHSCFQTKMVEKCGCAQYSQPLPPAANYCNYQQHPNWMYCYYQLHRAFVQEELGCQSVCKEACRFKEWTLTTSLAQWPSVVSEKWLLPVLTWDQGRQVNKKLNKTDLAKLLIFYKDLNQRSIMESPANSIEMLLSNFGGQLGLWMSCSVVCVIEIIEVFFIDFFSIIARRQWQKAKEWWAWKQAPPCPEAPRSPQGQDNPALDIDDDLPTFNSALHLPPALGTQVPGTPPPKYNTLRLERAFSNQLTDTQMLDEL
The assay is described as follows: Primary screen MP assay (membrane potential dye): dose-response curves for inhibition by hENaC blockers. The assay is classed as cell-based. Conditions: HEK293 Flp-In T-Rex hENaC cells (alpha, beta, gamma; pUR8191), loaded with MP-Blue dye for 1 hr, Flexstation; FIG. 4. The protocol: FIG. 4. Dose-response curve for different concentrations of the hENaC blockers amiloride, benzamil and phenamil (in M). Cells were loaded with MP-Blue dye for 1 hr and assayed in the Flexstation.
HEK293 Flp-In T-Rex hENaC cells were grown to about 80% confluency and dissociated from the culture dish with trypsin/EDTA for 1-5 minutes at 37° C. Dissociated cells were taken up in a concentration between 1×10^5 and 1×10^6 cells/ml in DMEM/Tet-free FCS/blasticidin/hygromycin medium. 100 μL of cells were added per well in a poly-L-lysine coated black well clear bottom 96-wells plate. The cells were grown overnight and then induced by addition of 100 μl DMEM/Tet-free FCS/blasticidin/hygromycin medium with doxycyclin (final conc. 0.25 μg/ml). Alternatively, in some wells amiloride was added to inhibit hENaC channel activity during induction.
After 20 to 48 hrs the medium was removed, cells were washed with buffer and subsequently loaded with MP-Blue (cat# R8042) or MP-Red (cat# R8123) dye (from Molecular Devices) according to the manufacturer's instructions for 1 hr at 37° C. The plates were subsequently loaded into the Flexstation II for fluorescence measurements. Compounds were added to the wells in different concentrations after a baseline measurement of 30 sec. […] The fluorescence values were normalized on the average value of the first five time points. […]

On to `NC(=Nc1ccccc1)NC(=O)c1nc(Cl)c(N)nc1N` [phenamil], for which the “inhibition of the hENaC channel (rank order from dose-response curves)” value is reported as “the best compound for inhibition”.
The result for `N=C(N)NC(=O)c1nc(Cl)c(N)nc1N` [amiloride] reads “followed by benzamil and amiloride”.

The values are drawn from patent publication US20090075320A1, “Method for screening an enhancer or a masker of salty taste” (priority 2006, published 2009).
